From patent US8628771B2, “CA IX-specific inhibitors” (Institute of Virology Slovak Academy of Sciences, priority 2002, dated 2014)
Where a name gives a salt, the structure may show the parent alone. Read-outs that look alike come from different tables or passages of the source.

Legend:
[1] = molecular target: T1, hCA I (Homo sapiens, UniProt P00915); assay: CA esterase activity assay, isozyme hCA I; assay type: biochemical; conditions: Table 3
T1 construct: made in house; host or cells: Escherichia coli BL21 (DE3)
T1 sequence (P00915 whole entry): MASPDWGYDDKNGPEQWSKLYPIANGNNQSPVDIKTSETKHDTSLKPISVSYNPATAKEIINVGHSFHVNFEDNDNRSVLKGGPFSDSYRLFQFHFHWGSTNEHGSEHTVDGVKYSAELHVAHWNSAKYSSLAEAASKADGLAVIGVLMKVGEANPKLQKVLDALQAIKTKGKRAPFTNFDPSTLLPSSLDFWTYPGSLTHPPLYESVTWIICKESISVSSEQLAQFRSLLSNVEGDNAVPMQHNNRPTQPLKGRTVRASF

[2] = tested on: human red cells; conditions: for [sulfonamide] in red blood cells, EI / [sulfonamide] in red blood cells, ES / [sulfonamide] in red blood cells, HPLC: human, 2 mM, pH 7.4
[3] = molecular target: T2, bCA IV (Bos taurus, UniProt Q95323); assay: CA esterase activity assay, isozyme bCA IV; assay type: biochemical, bovine; conditions: Table 3
T2 construct: CA IV was isolated from bovine lung microsomes as described by Maren et al; from tissue; host or cells: bovine lung microsomes
T2 sequence (Q95323 19-284): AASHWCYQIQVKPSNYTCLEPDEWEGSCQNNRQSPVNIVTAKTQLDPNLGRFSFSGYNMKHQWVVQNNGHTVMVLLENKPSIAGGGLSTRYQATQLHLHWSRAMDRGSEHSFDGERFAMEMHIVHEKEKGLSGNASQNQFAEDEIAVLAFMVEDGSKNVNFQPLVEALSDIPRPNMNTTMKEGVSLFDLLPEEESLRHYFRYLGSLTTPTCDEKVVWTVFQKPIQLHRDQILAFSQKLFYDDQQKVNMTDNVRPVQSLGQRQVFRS

[4] = molecular target: hCA IX (Homo sapiens, UniProt Q16790); assay: CA CO2 hydrase activity assay, tumor-associated isozyme hCA IX
Description: An SX.18MV-R Applied Photophysics stopped-flow instrument has been used for assaying the CA CO2 hydration activity assays [44]. […] Inhibitor and enzyme solutions were preincubated together for 10 min at room temperature prior to assay, in order to allow for the formation of the E-I complex.

[5] = molecular target: T3, hCA II (Homo sapiens, UniProt P00918); assay: CA esterase activity assay, isozyme hCA II; assay type: biochemical
T3 construct: made in house; host or cells: Escherichia coli BL21 (DE3)
Description: Human CA I and CA II cDNAs were expressed in Escherichia coli strain BL21 (DE3) from the plasmids pACA/hCA I and pACA/hCA II described by Lindskog's group [54].
Non-enzymatic hydrolysis rates were always subtracted from the observed rates. […] Inhibitor and enzyme solutions were preincubated together for 10 min at room temperature prior to assay, in order to allow for the formation of the E-I complex. The inhibition constant KI was determined as described in references [44, 76].

[6] = human (cloned) isozymes, esterase assay method, read-out: KI hCA I
[7] = from bovine lung microsomes, esterase assay method, read-out: KI bCA IV
[8] = read-out: KI hCA IX, Table 3, catalytic domain of the human, cloned isozyme, CO2 hydrase assay method
[9] = Table 3, human (cloned) isozymes, esterase assay method, read-out: KI hCA II
[10] = Tables 1 and 3, read-out: KI against CA II
[11] = KI against CA IX, text discussion of Tables 1-3

| SMILES | melting point [°C] | Ki [1, 6] [nM] | Ki [3, 7] [nM] | Ki [4] [nM] | Ki [4, 8] [nM] | Ki [5, 9] [nM] | Ki [5, 10] [nM] | Ki ([3]; read-out: KI against CA IV) [nM] | further results |
| --- | --- | --- | --- | --- | --- | --- | --- | --- | --- |
| CCCc1cc(-c2ccccc2)cc(CCC)[n+]1-c1ccc(S(=O)(=O)Nc2nnc(S(N)(=O)=O)s2)cc1 (as salt: perchlorate) [Compound 77, 1-N-[5-Sulfamoyl-1,3,4-thiadiazol-2-yl-(aminosulfonyl-4-phenyl)]-2,6-di-n-propyl-4-phenylpyridinium perchlorate] | 235 to 237 | – | – | – | – | – | – | – | – |
| Cc1cc(-c2ccccc2)cc(-c2ccccc2)[n+]1-c1ccc(S(=O)(=O)Nc2nnc(S(N)(=O)=O)s2)cc1 (as salt: perchlorate) [Compound 80, 1-N-[5-Sulfamoyl-1,3,4-thiadiazol-2-yl-(aminosulfonyl-4-phenyl)]-2-methyl-4,6-diphenylpyridinium perchlorate] | 298 to 299 | – | – | – | – | – | – | – | – |
| CCc1cc(-c2ccccc2)cc(-c2ccccc2)[n+]1-c1ccc(S(=O)(=O)Nc2nnc(S(N)(=O)=O)s2)cc1 (as salt: perchlorate) [Compound 81, 1-N-[5-Sulfamoyl-1,3,4-thiadiazol-2-yl-(aminosulfonyl-4-phenyl)]-2-ethyl-4,6-diphenylpyridinium perchlorate] | 254 to 255 | – | – | – | – | – | – | – | – |
| CCc1cc(-c2ccccc2)cc(-c2ccccc2)[n+]1-c1ccc(S(=O)(=O)Nc2nnc(S(N)(=O)=O)s2)cc1 [Compound 81, 1-N-[5-Sulfamoyl-1,3,4-thiadiazol-2-yl-(aminosulfonyl-4-phenyl)]-2-ethyl-4,6-diphenylpyridinium perchlorate] | – | 5 | 3.8 | – | 29 | 1.14 | – | – | Ki [4, 11]: 12 to 35 nM; Ki ([5]; read-out: KI against CA II): 0.2 to 1.61 nM |
| CCCc1cc(-c2ccccc2)cc(-c2ccccc2)[n+]1-c1ccc(S(=O)(=O)Nc2nnc(S(N)(=O)=O)s2)cc1 [Compound 82, 1-N-[5-Sulfamoyl-1,3,4-thiadiazol-2-yl-(aminosulfonyl-4-phenyl)]-2-n-propyl-4,6-diphenylpyridinium perchlorate] | – | 8 | 6 | – | 40 | 3.9 | 3.13 to 5.96 | 5.2 to 10.3 | Ki ([1]; read-out: KI against CA I): 7 to 12 nM |
| CC(C)c1cc(-c2ccccc2)cc(-c2ccccc2)[n+]1-c1ccc(S(=O)(=O)Nc2nnc(S(N)(=O)=O)s2)cc1 [Compound 83, 1-N-[5-Sulfamoyl-1,3,4-thiadiazol-2-yl-(aminosulfonyl-4-phenyl)]-2-iso-propyl-4,6-diphenylpyridinium perchlorate] | – | 6 | 4.5 | 12 to 35 | 32 | 3.74 | 3.13 to 5.96 | – | – |
| CCCCc1cc(-c2ccccc2)cc(-c2ccccc2)[n+]1-c1ccc(S(=O)(=O)Nc2nnc(S(N)(=O)=O)s2)cc1 [Compound 84, 1-N-[5-Sulfamoyl-1,3,4-thiadiazol-2-yl-(aminosulfonyl-4-phenyl)]-2-n-butyl-4,6-diphenylpyridinium perchlorate] | – | 8 | 8.4 | – | 45 | 4.95 | 3.13 to 5.96 | 5.2 to 10.3 | Ki ([1]; read-out: KI against CA I): 7 to 12 nM |
| CC(C)(C)c1cc(-c2ccccc2)cc(-c2ccccc2)[n+]1-c1ccc(S(=O)(=O)Nc2nnc(S(N)(=O)=O)s2)cc1 [Compound 85, 1-N-[5-Sulfamoyl-1,3,4-thiadiazol-2-yl-(aminosulfonyl-4-phenyl)]-2-tert-butyl-4,6-diphenylpyridinium perchlorate] | – | 12 | 7 | 40 to 43 | 43 | 4.11 | 3.13 to 5.96 | 5.2 to 10.3 | Ki ([1]; read-out: KI against CA I): 7 to 12 nM |
| NS(=O)(=O)c1nnc(NS(=O)(=O)c2ccc(-[n+]3c(-c4ccccc4)cc(-c4ccccc4)cc3-c3ccccc3)cc2)s1 [Compound 87, 1-N-[5-Sulfamoyl-1,3,4-thiadiazol-2-yl-(aminosulfonyl-4-phenyl)]-2,4,6-triphenyl-pyridinium perchlorate] | – | 5 | 5.6 | 12 to 35 | 12 | 5.96 | 3.13 to 5.96 | 5.2 to 10.3 | – |
| NS(=O)(=O)c1nnc(NS(=O)(=O)c2ccc(-[n+]3c(-c4ccccc4)cccc3-c3ccccc3)cc2)s1 [Compound 88, 1-N-[5-Sulfamoyl-1,3,4-thiadiazol-2-yl-(aminosulfonyl-4-phenyl)]-2,6-diphenylpyridinium perchlorate] | – | 5 | 5.4 | 12 to 35 | 16 | 4.93 | 3.13 to 5.96 | 5.2 to 10.3 | – |

The next lines start with results.

| melting point [°C] | Ki [1, 6] [nM] | Ki [3, 7] [nM] | Ki [4] [nM] | Ki [4, 8] [nM] | Ki [5, 9] [nM] | Ki [5, 10] [nM] | Ki ([3]; read-out: KI against CA IV) [nM] | SMILES | further results |
| --- | --- | --- | --- | --- | --- | --- | --- | --- | --- |
| > 300 | – | – | – | – | – | – | – | Cc1cc(C)[n+](-c2ccc(S(=O)(=O)Nc3nnc(S(N)(=O)=O)s3)cc2)c(C)c1 (as salt: perchlorate) [Compound 71, 1-N-[5-Sulfamoyl-1,3,4-thiadiazol-2-yl-(aminosulfonyl-4-phenyl)]-2,4,6-trimethyl-pyridinium perchlorate] | – |
| 278 to 279 | – | – | – | – | – | – | – | Cc1cc(C(C)C)[n+](-c2ccc(S(=O)(=O)Nc3nnc(S(N)(=O)=O)s3)cc2)c(C(C)C)c1 (as salt: perchlorate) [Compound 73, 1-N-[5-Sulfamoyl-1,3,4-thiadiazol-2-yl-(aminosulfonyl-4-phenyl)]-2,6-di-iso-propyl-4-methylpyridinium perchlorate] | – |
| > 300 | – | – | – | – | – | – | – | Cc1cc(-c2ccccc2)cc(C)[n+]1-c1ccc(S(=O)(=O)Nc2nnc(S(N)(=O)=O)s2)cc1 (as salt: perchlorate) [Compound 75, 1-N-[5-Sulfamoyl-1,3,4-thiadiazol-2-yl-(aminosulfonyl-4-phenyl)]-2,6-dimethyl-4-phenylpyridinium perchlorate] | – |
| 267 to 268 | – | – | – | – | – | – | – | CCc1cc(-c2ccccc2)cc(CC)[n+]1-c1ccc(S(=O)(=O)Nc2nnc(S(N)(=O)=O)s2)cc1 (as salt: perchlorate) [Compound 76, 1-N-[5-Sulfamoyl-1,3,4-thiadiazol-2-yl-(aminosulfonyl-4-phenyl)]-2,6-diethyl-4-phenylpyridinium perchlorate] | – |
| 278 to 279 | – | – | – | – | – | – | – | CC(C)c1cc(-c2ccccc2)cc(C(C)C)[n+]1-c1ccc(S(=O)(=O)Nc2nnc(S(N)(=O)=O)s2)cc1 (as salt: perchlorate) [Compound 79, 1-N-[5-Sulfamoyl-1,3,4-thiadiazol-2-yl-(aminosulfonyl-4-phenyl)]-2,6-di-isopropyl-4-phenylpyridinium perchlorate] | – |
| – | 4 | 2.1 | 3 to 9 | 3 | 0.26 | – | – | Cc1cc(C)[n+](-c2ccc(S(=O)(=O)Nc3nnc(S(N)(=O)=O)s3)cc2)c(C)c1 [Compound 71, 1-N-[5-Sulfamoyl-1,3,4-thiadiazol-2-yl-(aminosulfonyl-4-phenyl)]-2,4,6-trimethyl-pyridinium perchlorate] | amount detected within the blood red cells (membrane penetration) [2]: detected only in very small amounts; [sulfonamide] in red blood cells, EI ([2]; 30 min): 0.5 µM; [sulfonamide] in red blood cells, ES ([2]; 30 min): 0.5 µM; [sulfonamide] in red blood cells, HPLC ([2]; 30 min): 0.3 µM; [sulfonamide] in red blood cells, EI ([2]; 60 min): 0.3 µM; [sulfonamide] in red blood cells, ES ([2]; 60 min): 0.5 µM; [sulfonamide] in red blood cells, HPLC ([2]; 60 min): 0.4 µM; times more effective than benzolamide in inhibiting CA IX ([4]; ratio of KI values): ~13; Ki ([5]; read-out: KI against CA II): 0.2 to 1.61 nM |
| – | 4 | 2.3 | 3 to 9 | 9 | 0.21 | 0.2 to 1.61 | – | CCc1cc(-c2ccccc2)cc(CC)[n+]1-c1ccc(S(=O)(=O)Nc2nnc(S(N)(=O)=O)s2)cc1 [Compound 76, 1-N-[5-Sulfamoyl-1,3,4-thiadiazol-2-yl-(aminosulfonyl-4-phenyl)]-2,6-diethyl-4-phenylpyridinium perchlorate] | amount detected within the blood red cells (membrane penetration) [2]: detected only in very small amounts; [sulfonamide] in red blood cells, EI ([2]; 30 min): 1.0 µM; [sulfonamide] in red blood cells, ES ([2]; 30 min): 1.1 µM; [sulfonamide] in red blood cells, HPLC ([2]; 30 min): 1.0 µM; [sulfonamide] in red blood cells, EI ([2]; 60 min): 1.1 µM; [sulfonamide] in red blood cells, ES ([2]; 60 min): 1.2 µM; [sulfonamide] in red blood cells, HPLC ([2]; 60 min): 1.1 µM |
| – | 3 | 2.4 | 3 to 9 | 5 | 0.3 | – | – | Cc1cc(C)[n+](-c2ccc(S(=O)(=O)Nc3nnc(S(N)(=O)=O)s3)cc2)c(C)c1C [Compound 89, 1-N-[5-Sulfamoyl-1,3,4-thiadiazol-2-yl-(aminosulfonyl-4-phenyl)]-2,3,4,6-tetramethylpyridinium perchlorate] | amount detected within the blood red cells (membrane penetration) [2]: detected only in very small amounts; [sulfonamide] in red blood cells, EI ([2]; 30 min): 0.5 µM; [sulfonamide] in red blood cells, ES ([2]; 30 min): 0.2 µM; [sulfonamide] in red blood cells, HPLC ([2]; 30 min): 0.3 µM; [sulfonamide] in red blood cells, EI ([2]; 60 min): 0.4 µM; [sulfonamide] in red blood cells, ES ([2]; 60 min): 0.6 µM; [sulfonamide] in red blood cells, HPLC ([2]; 60 min): 0.3 µM |
| – | 3 | 5.2 | – | 15 | 1.24 | – | 5.2 to 10.3 | Cc1c(-c2ccccc2)cc(C)[n+](-c2ccc(S(=O)(=O)Nc3nnc(S(N)(=O)=O)s3)cc2)c1C [Compound 90] | Ki [4, 11]: 12 to 35 nM |
